# Experimental data as given in paper PMC6225304, “Design, Synthesis, and Neuroprotective Effects of a Series of Pyrazolines against 6-Hydroxydopamine-Induced Oxidative Stress” (Molecules : A Journal of Synthetic Chemistry and Natural …, 2018).
# “And” between values parts separate entries of the source, which are not always exact repeats. Equal values may be shown once. Read-outs that look alike come from different tables or passages of the source.
# Tests used:
# [1] = test system: differentiated PC-12 Adh cells; assay: Neuroprotective activity against 6-OHDA-induced neurotoxicity (WST-1 cell viability); type: cell-based, rat; details: for induction in cell viability percentage compared with the 6-OHDA-positive control group (statistical analysis): 100 µg/mL, one-way ANOVA and Tukey’s post hoc test, ** p < 0.01
# Description: (§1) PC-12 Adh cells were cultured in 10% horse serum, 5% fetal bovine serum, and 1% penicillin-streptomycin containing DMEM growth medium, at 37 °C in a humidified incubator with 5% CO2. The proliferating cells were passaged 1:2 to new 25 and/or 75 cm^2 flasks and cell stocks were prepared in order to use in future experiments. In order to induce PC-12 Adh cell differentiation into neuronal phenotype, growth medium was changed with 1% fetal bovine serum, 1% penicillin-streptomycin and 100 nM NGF containing DMEM differentiation medium.
# (§2) The differentiated PC-12 Adh cells were scratched and plated onto 96-well culture plates at 5 × 10^3 density per well. […] After 24 h, the neuroprotective effects of the compounds were determined by WST-1 cell viability assay as explained above. The graphics were drawn according to the cell viability, which was expressed as percentage of the surviving control cells in the study.
# (§3) The graphics were drawn with Graphpad Prism 6.0 software and statistically analyzed using one-way ANOVA and Tukey’s post hoc test.
# [2] = test system: differentiated PC-12 Adh cells; assay: WST-1 cell viability assay for non-cytotoxic concentrations; type: cell-based, rat; details: for IC50: Rattus norvegicus, read-out: IC50 (cell viability assay)
# Description: as §1
# Differentiated PC-12 Adh cells were stained with Trypan blue solution and counted by a cell counter device (Cedex XS, Innovatis, Malvern, PA, USA) in order to determine the appropriate cell numbers before the experiments.
# In order to obtain non-cytotoxic concentrations of the compounds, the viability of neuronal cells was measured by using 2-(4-iodophenyl)-3-(4-nitrophenyl)-5-(2,4-disulfophenyl)-2H-tetrazolium sodium salt (WST-1) assay (Roche, Mannheim, Germany). The test is based on the cleavage of the tetrazolium salt WST-1 in formazan by mitochondrial dehydrogenases in viable cells. The formazan dye was quantified in a scanning multiwell spectrophotometer by measuring the absorbance of the dye at 420 nm. The differentiated PC-12 Adh cells were scratched and plated onto 96-well culture plates at 5 × 10^3 density per well. […] After the incubation period, the cell proliferation reagent WST-1 (10 μL per well) was added to the wells; and absorbances were measured after 3 h using a Cytation 3 cell imaging multi-mode reader at 420 nm (BioTek, Winooski, VT, USA). The measured absorbances directly correlated to the number of viable cells.
# [3] = Neuroprotective activity against 6-OHDA-induced neurotoxicity (WST-1 cell viability); type: cell-based, rat; details: rat, 150 µM 6-OHDA alone for 24 h (positive control); % of the control
# Description: as §1, §2, §3
# [4] = 100 µg/mL compound for 6 h, then 150 µM 6-OHDA for 24 h
# [5] = differentiated PC-12 Adh cells, 24 h treatment, WST-1
SMILES,"IC50 [2, 5] [µg/mL]",further results
"Cc1ccc(/C=C/C(=O)c2ccco2)cc1 [Compound 1, 1-(2-Furanyl)-3-aryl-2-propen-1-one]",12,"reduction in cell viability ([1]; 10 µg/mL compound for 6 h, then 150 µM 6-OHDA for 24 h): 40%; reduction in cell viability [1, 4]: 97%; cytotoxicity (effect on cell viability, in words) ([2]; differentiated PC-12 Adh cells, 100 µg/mL): highly cytotoxic; melting point: 111 to 113 °C"
"O=C(/C=C/c1ccc2c(c1)OCO2)c1cccs1 [Compound 2, 1-(2-Thienyl)-3-aryl-2-propen-1-one]",345,"reduction in cell viability [1, 4]: 34.1%"
"Cc1ccc(C2CC(c3ccco3)=NN2c2ccccc2)cc1 (centres unmarked) [Compound 3a, 1-Phenyl-3-(2-furanyl)-5-(4-methylphenyl)-2-pyrazoline]",> 400,
"Cc1ccc(C2CC(c3ccco3)=NN2c2ccc(C#N)cc2)cc1 (centres unmarked) [Compound 3b, 1-(4-Cyanophenyl)-3-(2-furanyl)-5-(4-methylphenyl)-2-pyrazoline]",204,
"Cc1ccc(C2CC(c3ccco3)=NN2c2ccc(F)cc2)cc1 (centres unmarked) [Compound 3c, 1-(4-Fluorophenyl)-3-(2-furanyl)-5-(4-methylphenyl)-2-pyrazoline]",353,
"Cc1ccc(C2CC(c3ccco3)=NN2c2ccc(Cl)cc2)cc1 (centres unmarked) [Compound 3d, 1-(4-Chlorophenyl)-3-(2-furanyl)-5-(4-methylphenyl)-2-pyrazoline]",> 400,
"Cc1ccc(C2CC(c3ccco3)=NN2c2ccc(Br)cc2)cc1 (centres unmarked) [Compound 3e, 1-(4-Bromophenyl)-3-(2-furanyl)-5-(4-methylphenyl)-2-pyrazoline]",398,
"Cc1ccc(C2CC(c3ccco3)=NN2c2ccc(C)cc2)cc1 (centres unmarked) [Compound 3f, 1-(4-Methylphenyl)-3-(2-furanyl)-5-(4-methylphenyl)-2-pyrazoline]",> 400,
"COc1ccc(N2N=C(c3ccco3)CC2c2ccc(C)cc2)cc1 (centres unmarked) [Compound 3g, 1-(4-Methoxyphenyl)-3-(2-furanyl)-5-(4-methylphenyl)-2-pyrazoline]",> 400,
"Cc1ccc(C2CC(c3ccco3)=NN2c2ccc(S(C)(=O)=O)cc2)cc1 (centres unmarked) [Compound 3h, 1-(4-Methylsulfonylphenyl)-3-(2-furanyl)-5-(4-methylphenyl)-2-pyrazoline]",> 400,"reduction in cell viability [1, 4]: 20%; induction in cell viability percentage compared with the 6-OHDA-positive control group (statistical analysis) [1]: significant"
"Cc1ccc(C2CC(c3ccco3)=NN2c2ccc(S(N)(=O)=O)cc2)cc1 (centres unmarked) [Compound 3i, 1-(4-Sulfonamidophenyl)-3-(2-furanyl)-5-(4-methylphenyl)-2-pyrazoline]",205,
"c1ccc(N2N=C(c3cccs3)CC2c2ccc3c(c2)OCO3)cc1 (centres unmarked) [Compound 4a, 1-Phenyl-3-(2-thienyl)-5-(1,3-benzodioxol-5-yl)-2-pyrazoline]",> 400,
"N#Cc1ccc(N2N=C(c3cccs3)CC2c2ccc3c(c2)OCO3)cc1 (centres unmarked) [Compound 4b, 1-(4-Cyanophenyl)-3-(2-thienyl)-5-(1,3-benzodioxol-5-yl)-2-pyrazoline]",> 400,
"Fc1ccc(N2N=C(c3cccs3)CC2c2ccc3c(c2)OCO3)cc1 (centres unmarked) [Compound 4c, 1-(4-Fluorophenyl)-3-(2-thienyl)-5-(1,3-benzodioxol-5-yl)-2-pyrazoline]",> 400,
"Clc1ccc(N2N=C(c3cccs3)CC2c2ccc3c(c2)OCO3)cc1 (centres unmarked) [Compound 4d, 1-(4-Chlorophenyl)-3-(2-thienyl)-5-(1,3-benzodioxol-5-yl)-2-pyrazoline]",> 400,
"Brc1ccc(N2N=C(c3cccs3)CC2c2ccc3c(c2)OCO3)cc1 (centres unmarked) [Compound 4e, 1-(4-Bromophenyl)-3-(2-thienyl)-5-(1,3-benzodioxol-5-yl)-2-pyrazoline]",> 400,
"Cc1ccc(N2N=C(c3cccs3)CC2c2ccc3c(c2)OCO3)cc1 (centres unmarked) [Compound 4f, 1-(4-Methylphenyl)-3-(2-thienyl)-5-(1,3-benzodioxol-5-yl)-2-pyrazoline]",239,
"COc1ccc(N2N=C(c3cccs3)CC2c2ccc3c(c2)OCO3)cc1 (centres unmarked) [Compound 4g, 1-(4-Methoxyphenyl)-3-(2-thienyl)-5-(1,3-benzodioxol-5-yl)-2-pyrazoline]",252,
"CS(=O)(=O)c1ccc(N2N=C(c3cccs3)CC2c2ccc3c(c2)OCO3)cc1 (centres unmarked) [Compound 4h, 1-(4-Methylsulfonylphenyl)-3-(2-thienyl)-5-(1,3-benzodioxol-5-yl)-2-pyrazoline]",> 400,"reduction in cell viability [1, 4]: 23%; induction in cell viability percentage compared with the 6-OHDA-positive control group (statistical analysis) [1]: significant"
"NS(=O)(=O)c1ccc(N2N=C(c3cccs3)CC2c2ccc3c(c2)OCO3)cc1 (centres unmarked) [Compound 4i, 1-(4-Sulfonamidophenyl)-3-(2-thienyl)-5-(1,3-benzodioxol-5-yl)-2-pyrazoline]",> 400,
"NCCc1cc(O)c(O)cc1O [Compound 6-OHDA, 6-hydroxydopamine]",,"viability at 24 h, 150 µM [3]: 57%; reduction in cell viability ([1]; 150 µM 6-OHDA alone for 24 h (positive control)): 42.13% and 43% and 42%; IC50 ([2]; PC-12, 24 h): 150 µM"
